Measurements reported in ChEMBL document CHEMBL1138843, “Pyrazolo[1,5-a]pyrimidines: estrogen receptor ligands possessing estrogen receptor beta antagonist activity” (J Med Chem, 2004).

Legend:
[1] = molecular target: T1, Estrogen receptor (Homo sapiens) (UniProt P03372)
T1 sequence (whole entry): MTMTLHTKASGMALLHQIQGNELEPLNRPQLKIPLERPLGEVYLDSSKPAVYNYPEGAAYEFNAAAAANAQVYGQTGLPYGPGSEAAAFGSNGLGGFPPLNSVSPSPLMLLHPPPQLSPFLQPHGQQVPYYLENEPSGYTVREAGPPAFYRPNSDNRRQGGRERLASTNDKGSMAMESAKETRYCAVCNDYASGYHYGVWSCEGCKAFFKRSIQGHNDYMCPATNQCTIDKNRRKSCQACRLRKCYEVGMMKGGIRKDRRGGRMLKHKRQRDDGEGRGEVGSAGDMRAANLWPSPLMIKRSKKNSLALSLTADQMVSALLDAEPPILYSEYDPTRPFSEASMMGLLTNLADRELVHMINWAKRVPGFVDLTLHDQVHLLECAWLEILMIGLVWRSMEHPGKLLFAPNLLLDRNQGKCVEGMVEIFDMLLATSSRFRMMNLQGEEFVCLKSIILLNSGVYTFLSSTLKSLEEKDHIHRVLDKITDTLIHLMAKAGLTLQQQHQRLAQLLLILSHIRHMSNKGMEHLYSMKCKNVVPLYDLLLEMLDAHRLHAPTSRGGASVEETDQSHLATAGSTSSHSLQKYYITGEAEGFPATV
Description: Relative binding affinity for human estrogen receptor 1 compared to [3H]estradiol (100%)

[2] = molecular target: Estrogen receptor beta (Homo sapiens) (UniProt Q92731)
Description: Relative binding affinity for human estrogen receptor 2 compared to [3H]estradiol (100%)
Further: unit not given here.

Sequence of Estrogen receptor beta (Homo sapiens) (Q92731 whole entry): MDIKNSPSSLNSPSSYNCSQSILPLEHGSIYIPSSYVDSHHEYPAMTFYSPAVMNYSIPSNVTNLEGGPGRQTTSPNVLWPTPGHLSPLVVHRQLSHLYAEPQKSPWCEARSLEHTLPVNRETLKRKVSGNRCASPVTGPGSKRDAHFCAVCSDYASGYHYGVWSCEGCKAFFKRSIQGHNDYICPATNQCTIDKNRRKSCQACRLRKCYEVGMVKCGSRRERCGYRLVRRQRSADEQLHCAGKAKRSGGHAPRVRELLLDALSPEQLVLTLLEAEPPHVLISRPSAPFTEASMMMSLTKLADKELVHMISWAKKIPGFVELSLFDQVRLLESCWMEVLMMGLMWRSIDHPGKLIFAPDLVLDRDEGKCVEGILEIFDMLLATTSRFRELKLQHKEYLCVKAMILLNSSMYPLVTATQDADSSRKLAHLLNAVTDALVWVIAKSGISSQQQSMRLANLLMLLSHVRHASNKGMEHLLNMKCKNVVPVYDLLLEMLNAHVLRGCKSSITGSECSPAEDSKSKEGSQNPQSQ

Cc1cc(C)n2nc(-c3ccc(O)cc3)c(-c3ccc(O)cc3)c2n1 showed a Binding affinity [1] of 0.04 and a Binding affinity [2] of 0.07.

Compound Oc1ccc(-c2c(-c3cccc(O)c3)nn3cccnc23)cc1 has a Binding affinity [1] of less than 0.01 and a Binding affinity [2] of less than 0.01.

Compound Oc1ccc(-c2c(-c3cccc(O)c3)nn3c(C(F)(F)F)cc(C(F)(F)F)nc23)cc1 has a Binding affinity [1] of 0.01 and a Binding affinity [2] of 0.04.

With CC(C)c1cc(C(C)C)n2nc(-c3ccc(O)cc3)c(-c3cccc(O)c3)c2n1 the Binding affinity [1] was 0.01 and the Binding affinity [2] was less than 0.01.

Work on c1ccc(-c2nn3cccnc3c2-c2ccccc2)cc1 yielded a Binding affinity [1] of less than 0.01 and a Binding affinity [2] of less than 0.01.

Oc1ccc(-c2nn3c(C(F)(F)F)cc(C(F)(F)F)nc3c2-c2ccc(O)cc2)cc1 showed a Binding affinity [1] of 1.9 and a Binding affinity [2] of 1.7.

With CC(C)c1cc(C(C)C)n2nc(-c3ccc(O)cc3)c(-c3ccc(O)cc3)c2n1 the Binding affinity [1] was 0.1 and the Binding affinity [2] was 0.07.

In the case of FC(F)(F)c1cc(C(F)(F)F)n2nc(-c3ccccc3)c(-c3ccccc3)c2n1, the Binding affinity [1] is reported as less than 0.01 and the Binding affinity [2] is reported as less than 0.01.

Oc1ccc(-c2c(-c3cccc(O)c3)nn3c(-c4ccccc4)cc(-c4ccccc4)nc23)cc1 gave a Binding affinity [1] of less than 0.01 and a Binding affinity [2] of less than 0.01.

For CC(C)c1cc(C(C)C)n2nc(-c3ccccc3)c(-c3ccc(O)cc3)c2n1, the Binding affinity [1] was 0.01 and the Binding affinity [2] was 0.05.

For Oc1ccc(-c2nn3c(-c4ccccc4)cc(-c4ccccc4)nc3c2-c2cccc(O)c2)cc1, the Binding affinity [1] was less than 0.01 and the Binding affinity [2] was less than 0.01.

Oc1ccc(-c2nn3c(C(F)(F)F)cc(C(F)(F)F)nc3c2-c2ccccc2)cc1 showed a Binding affinity [1] of 0.39 and a Binding affinity [2] of 0.41.

Oc1ccc(-c2nn3cccnc3c2-c2ccccc2)cc1 gave a Binding affinity [1] of less than 0.01 and a Binding affinity [2] of 0.02.

Cc1c(C(C)(C)C)nc2c(-c3ccccc3)c(-c3ccc(O)cc3)nn2c1C(C)(C)C gave a Binding affinity [1] of 0.83 and a Binding affinity [2] of 0.02.

With Cc1c(C(C)(C)C)nc2c(-c3ccc(O)cc3)c(-c3ccc(O)cc3)nn2c1C(C)(C)C the Binding affinity [1] was 0.13 and the Binding affinity [2] was 0.16.

CCc1cc(CC)n2nc(-c3ccc(O)cc3)c(-c3ccccc3)c2n1 was tested, and the Binding affinity [1] was 0.13 and the Binding affinity [2] was 0.06.

With Cc1nc2c(-c3ccccc3)c(-c3ccc(O)cc3)nn2c(C)c1C the Binding affinity [1] was 0.01 and the Binding affinity [2] was 0.02.

Work on CCc1cc(CC)n2nc(-c3ccccc3)c(-c3ccccc3)c2n1 yielded a Binding affinity [1] of less than 0.01 and a Binding affinity [2] of less than 0.01.

Oc1ccc(-c2nn3c(-c4ccccc4)cc(-c4ccccc4)nc3c2-c2ccccc2)cc1 was tested, and the Binding affinity [1] was less than 0.01 and the Binding affinity [2] was less than 0.01.

With Oc1ccc(-c2c(-c3ccccc3)nn3c(C(F)(F)F)cc(C(F)(F)F)nc23)cc1 the Binding affinity [1] was 0.01 and the Binding affinity [2] was 0.05.

Compound Cc1cc(C)n2nc(-c3ccccc3)c(-c3ccccc3)c2n1 has a Binding affinity [1] of less than 0.01 and a Binding affinity [2] of less than 0.01.

With CCc1cc(CC)n2nc(-c3ccccc3)c(-c3ccc(O)cc3)c2n1 the Binding affinity [1] was 0.02 and the Binding affinity [2] was 0.05.

For Cc1c(C(C)(C)C)nc2c(-c3cccc(O)c3)c(-c3ccc(O)cc3)nn2c1C(C)(C)C, the Binding affinity [1] was 0.02 and the Binding affinity [2] was 0.01.

Cc1nc2c(-c3ccc(O)cc3)c(-c3ccccc3)nn2c(C)c1C showed a Binding affinity [1] of less than 0.01 and a Binding affinity [2] of 0.01.

Compound Oc1ccc(-c2nn3cccnc3c2-c2ccc(O)cc2)cc1 has a Binding affinity [1] of less than 0.01 and a Binding affinity [2] of 0.1.

Oc1ccc(-c2c(-c3ccccc3)nn3cccnc23)cc1 showed a Binding affinity [1] of 0.01 and a Binding affinity [2] of 0.05.

Cc1c(C(C)(C)C)nc2c(-c3ccc(O)cc3)c(-c3cccc(O)c3)nn2c1C(C)(C)C was tested, and the Binding affinity [1] was less than 0.01 and the Binding affinity [2] was less than 0.01.

Cc1cc(C)n2nc(-c3cccc(O)c3)c(-c3ccc(O)cc3)c2n1 gave a Binding affinity [1] of less than 0.01 and a Binding affinity [2] of less than 0.01.

With Oc1ccc(-c2c(-c3ccccc3)nn3c(-c4ccccc4)cc(-c4ccccc4)nc23)cc1 the Binding affinity [1] was less than 0.01 and the Binding affinity [2] was less than 0.01.

In the case of CC(C)c1cc(C(C)C)n2nc(-c3cccc(O)c3)c(-c3ccc(O)cc3)c2n1, the Binding affinity [1] is reported as less than 0.01 and the Binding affinity [2] is reported as 0.01.

With Oc1ccc(-c2nn3cccnc3c2-c2cccc(O)c2)cc1 the Binding affinity [1] was less than 0.01 and the Binding affinity [2] was less than 0.01.

Cc1nc2c(-c3ccc(O)cc3)c(-c3cccc(O)c3)nn2c(C)c1C gave a Binding affinity [1] of less than 0.01 and a Binding affinity [2] of less than 0.01.

Cc1cc(C)n2nc(-c3ccccc3)c(-c3ccc(O)cc3)c2n1 showed a Binding affinity [1] of 0.01 and a Binding affinity [2] of 0.05.

In the case of CCc1cc(CC)n2nc(-c3ccc(O)cc3)c(-c3cccc(O)c3)c2n1, the Binding affinity [1] is reported as less than 0.01 and the Binding affinity [2] is reported as less than 0.01.

Compound Oc1ccc(-c2nn3c(-c4ccccc4)cc(-c4ccccc4)nc3c2-c2ccc(O)cc2)cc1 has a Binding affinity [1] of 0.02 and a Binding affinity [2] of 0.03.

CCc1cc(CC)n2nc(-c3ccc(O)cc3)c(-c3ccc(O)cc3)c2n1 was tested, and the Binding affinity [1] was 0.16 and the Binding affinity [2] was 0.07.

Cc1c(C(C)(C)C)nc2c(-c3ccc(O)cc3)c(-c3ccccc3)nn2c1C(C)(C)C gave a Binding affinity [1] of less than 0.01 and a Binding affinity [2] of 0.01.

Cc1cc(C)n2nc(-c3ccc(O)cc3)c(-c3cccc(O)c3)c2n1 was tested, and the Binding affinity [1] was less than 0.01 and the Binding affinity [2] was less than 0.01.

In the case of Cc1cc(C)n2nc(-c3ccc(O)cc3)c(-c3ccccc3)c2n1, the Binding affinity [1] is reported as 0.02 and the Binding affinity [2] is reported as 0.11.

Cc1nc2c(-c3cccc(O)c3)c(-c3ccc(O)cc3)nn2c(C)c1C was tested, and the Binding affinity [1] was less than 0.01 and the Binding affinity [2] was less than 0.01.

With CC(C)c1cc(C(C)C)n2nc(-c3ccc(O)cc3)c(-c3ccccc3)c2n1 the Binding affinity [1] was 0.14 and the Binding affinity [2] was 0.06.

CCc1cc(CC)n2nc(-c3cccc(O)c3)c(-c3ccc(O)cc3)c2n1 gave a Binding affinity [1] of less than 0.01 and a Binding affinity [2] of less than 0.01.

In the case of Cc1nc2c(-c3ccc(O)cc3)c(-c3ccc(O)cc3)nn2c(C)c1C, the Binding affinity [1] is reported as 0.01 and the Binding affinity [2] is reported as 0.01.

With Oc1ccc(-c2nn3c(C(F)(F)F)cc(C(F)(F)F)nc3c2-c2cccc(O)c2)cc1 the Binding affinity [1] was 0.04 and the Binding affinity [2] was 0.08.
